# Patent publication US8865701B2, “Spiropyrrolidine beta-secretase inhibitors for the treatment of alzheimer'S disease” (Merck Sharp & Dohme Corp., priority 2009, dated 2014)
# Biological target: BACE 1 (Homo sapiens (Human), UniProt P56817)
# Test: ECL assay of beta-secretase (BACE) enzyme inhibition
# Format: biochemical
# Conditions: homogeneous end point ECL assay, biotinylated BACE substrate, soluble human enzyme, pH 6.5, rt
# Method: Enzyme inhibition is determined as follows.
# ECL Assay: A homogeneous end point electrochemiluminescence (ECL) assay is performed using a biotinylated BACE substrate. The Km of the substrate is approximated at 50 μM. A typical reaction contains approximately 0.6 nM enzyme, 0.25 μM of the substrate, and buffer (50 mM Pipes, pH 6.5, 0.1 mg/ml BSA, 0.2% CHAPS, 15 mM EDTA and 1 mM deferoxamine) in a total reaction volume of 100 μl. The reaction proceeds for 1-2 hrs and is then stopped by the addition of 150 μL of a quench cocktail solution (25 μl M Tris-HCl, pH 8.0, 50 μl INC buffer (2% BSA, 0.2% Tween-20 and 0.05% sodium azide diluted in Phosphate buffered saline (PBS) plus 75 μL PBS), containing Streptavidin coated magnetic beads and ruthenylated antibody which specifically recognizes the C-terminal residue of the product. The samples are subjected to M-384 (Igen Inc., Gaithersburg, Md.) analysis. Under these conditions, less than 10% of substrate is processed by BACE 1. The enzyme used in these studies is soluble (transmembrane domain and cytoplasmic extension excluded) human protein produced in a baculovirus expression system. To measure the inhibitory potency for compounds, 10 concentrations of inhibitors are prepared starting from 200 μM with three fold series dilution. Solutions of the inhibitor in DMSO are included in the reaction mixture (final DMSO concentration is 10%). All experiments are conducted at rt using the standard reaction conditions described above. To determine the IC50 of the compound, a four parameter equation is used for curve fitting. The errors in reproducing the dissociation constants are typically less than two-fold.
# BACE 1, sequence (P56817 46-457): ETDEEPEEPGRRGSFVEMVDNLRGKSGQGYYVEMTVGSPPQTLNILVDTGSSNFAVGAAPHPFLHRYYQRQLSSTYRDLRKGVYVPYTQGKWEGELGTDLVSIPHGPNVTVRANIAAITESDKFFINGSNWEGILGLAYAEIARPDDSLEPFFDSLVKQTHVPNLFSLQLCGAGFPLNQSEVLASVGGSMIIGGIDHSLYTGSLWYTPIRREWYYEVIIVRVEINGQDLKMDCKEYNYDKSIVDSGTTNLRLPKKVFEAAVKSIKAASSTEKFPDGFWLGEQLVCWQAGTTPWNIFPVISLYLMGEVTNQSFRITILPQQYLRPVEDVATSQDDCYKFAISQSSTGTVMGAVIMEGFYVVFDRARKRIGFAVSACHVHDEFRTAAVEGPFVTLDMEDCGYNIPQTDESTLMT
row,IC50,SMILES
1,450 nM,"Cc1cccc(C2CC(c3ccccc3)CCN2C(=O)[C@@H]2CNC[C@]23CCCc2nc(Cl)ccc23)c1 (stereo partly drawn) [Example 100, [(3R,4S)-2′-chloro-7′,8′-dihydro-6′H-spiro[pyrrolidine-3,5′-quinolin]-4-yl][2-(3-methylphenyl)-4-phenylpiperidin-1-yl]methanone]"
2,71 nM,"O=C([C@@H]1CNC[C@]12CCc1ccccc12)N1CC[C@@H](c2ccccc2)C[C@H]1c1ccccc1 [Example 21, (1R,4′S)-2,3-dihydrospiro[indene-1,3′-pyrrolidin]-4′-yl[(2S,4R)-2,4-diphenylpiperidin-1-yl]methanone]"
3,19000 nM,"CCc1ccc2c(c1)CCC[C@]21CNC[C@H]1C(=O)N1CCC(c2ccccc2)CC1 [Example 44, [(1R,4′S)-6-ethyl-3,4-dihydro-2H-spiro[naphthalene-1,3′-pyrrolidin]-4′-yl](4-phenylpiperidin-1-yl)methanone]"
4,20000 nM,"COC(C)(C)C1CCCCN1C(=O)[C@@H]1CNC[C@@]12CCCc1ccccc12 (stereo partly drawn) [Example 10, (1S,4′S)-3,4-dihydro-2H-spiro[naphthalene-1,3′-pyrrolidin]-4′-yl[2-(2-methoxypropan-2-yl)piperidin-1-yl]methanone]"
5,24 nM,"CC(C)c1cccc2c1CCC[C@]21CNC[C@H]1C(=O)N1CCC(c2ccccc2)CC1 [Example 31, (4-phenylpiperidin-1-yl)[(1R,4′S)-5-(propan-2-yl)-3,4-dihydro-2H-spiro[naphthalene-1,3′-pyrrolidin]-4′-yl]methanone]"
6,12000 nM,"O=C([C@@H]1CNC[C@]12CCSc1ccccc12)N1CCC(c2ccccc2)CC1 [Example 38, (3R,4S)-2′,3′-dihydrospiro[pyrrolidine-3,4′-thiochromen]-4-yl(4-phenylpiperidin-1-yl)methanone]"
7,200 nM,"O=C([C@@H]1CNC[C@]12CCCc1nc(Cl)ccc12)N1CCC2(C=Cc3ccccc32)CC1c1ccccc1 (stereo partly drawn) [Example 77, [(3R,4S)-2′-chloro-7′,8′-dihydro-6′H-spiro[pyrrolidine-3,5′-quinolin]-4-yl](2′-phenyl-1′H-spiro[indene-1,4′-piperidin]-1′-yl)methanone]"
8,22000 nM,"CC(C)[C@@H]1C[C@H](c2ccccc2)CCN1C(=O)[C@@H]1CNC[C@]12CCCc1ccccc12 [Example 7, (1R,4′S)-3,4-dihydro-2H-spiro[naphthalene-1,3′-pyrrolidin]-4′-yl[(2S,4R)-4-phenyl-2-(propan-2-yl)piperidin-1-yl]methanone]"
9,2190 nM,"COc1cccc2c1OCC[C@]21CNC[C@H]1C(=O)N1CC[C@@H](c2ccccc2)C[C@H]1C1CCCC(F)(F)C1 (stereo partly drawn) [Example 3, [(4R,4′S)-8-methoxy-2,3-dihydrospiro[chromene-4,3′-pyrrolidin]-4′-yl][(2S,4R)-2-(3,3-difluorocyclohexyl)-4-phenylpiperidin-1-yl]methanone]"

row,SMILES,IC50
1,"O=C([C@@H]1CNC[C@]12CCCc1cc(Cl)ccc12)N1CCC(c2ccccc2)CC1 [Example 19, [(1R,4′S)-6-chloro-3,4-dihydro-2H-spiro[naphthalene-1,3′-pyrrolidin]-4′-yl](4-phenylpiperidin-1-yl)methanone]",920 nM
2,"O=C([C@@H]1CNC[C@]12CCc1cc(Br)ccc12)N1CCC(c2ccccc2)CC1 [Example 30, [(1R,4′S)-5-bromo-2,3-dihydrospiro[indene-1,3′-pyrrolidin]-4′-yl](4-phenylpiperidin-1-yl)methanone]",14000 nM
